Measurements taken from patent US20040024024A1, “Aromatic sulfone hydroxamates and their use as protease inhibitors” (priority 2001, published 2004).

Experiments:
Assay in all cases: In vitro MMP inhibition, IC50 determination (fluorogenic substrate I)
Format in all cases: biochemical
Conditions in all cases: value outside parenthesis
[1] = target: T1, Human recombinant MMP-1 (Homo sapiens, UniProt P03956)
T1 construct: made in house; host or cells: MMP-1-transfected HT-1080 cells (spent media)
T1 sequence (P03956 100-469): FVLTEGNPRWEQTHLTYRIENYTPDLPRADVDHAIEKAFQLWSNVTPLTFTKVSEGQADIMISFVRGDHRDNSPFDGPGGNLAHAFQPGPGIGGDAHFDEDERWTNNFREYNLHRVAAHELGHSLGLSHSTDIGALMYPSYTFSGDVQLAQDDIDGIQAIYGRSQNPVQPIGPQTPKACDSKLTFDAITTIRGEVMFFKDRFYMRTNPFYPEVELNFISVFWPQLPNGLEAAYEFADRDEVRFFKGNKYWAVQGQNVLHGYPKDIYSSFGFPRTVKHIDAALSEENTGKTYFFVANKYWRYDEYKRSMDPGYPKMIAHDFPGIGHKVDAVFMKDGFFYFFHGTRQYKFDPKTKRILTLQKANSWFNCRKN
How it was run: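 Inhibitor dilutions were made in 100 mM Tris-HCl/100 mM NaCl/10 mM CaCl2 buffer, pH 7.5, and incubated at room temperature with activated proenzyme (from transfected HT-1080 media; APMA or trypsin) and 4 μM quenched methoxycoumarin peptide substrate. Loss of 415 nm fluorescence (328 nm excitation) against concentration gave IC50.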

[2] = target: T2, Human recombinant MMP-9 (Homo sapiens, UniProt P14780)
T2 construct: made in house; host or cells: MMP-9-transfected HT1080 cells (spent media)
How it was run: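 Reduction in fluorescence (328 nm excitation, 415 nm emission) from cleavage of 4 μM quenched peptide substrate I, measured at room temperature against inhibitor concentration, gave IC50. Enzyme: trypsin- or APMA-activated MMP-9 purified from transfected HT1080 medium; buffer 100 mM Tris, 100 mM NaCl, 10 mM CaCl2, pH 7.5.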

[3] = target: T3, Human recombinant MMP-13 (Homo sapiens, UniProt P45452)
T3 construct: made in house; host or cells: baculovirus / insect cells
How it was run: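 Fluorescence at 415 nm (excitation 328 nm) reports Gly-Leu cleavage of 4 μM quenched methoxycoumarin peptide substrate I. Human recombinant MMP-13, activated by trypsin or APMA, was incubated at room temperature with varied inhibitor concentrations in pH 7.5 Tris/NaCl/CaCl2 buffer; IC50 derived from reduced fluorescence.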

[4] = target: T4, Human recombinant MMP-14 (Homo sapiens, UniProt P50281)
T4 construct: The catalytic domain enzyme was expressed in E. coli inclusion bodies, solubilized in urea; made in house
How it was run: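 IC50 came from reduced fluorescence (ex 328 nm, em 415 nm) as inhibitor concentration rose, with 4 μM substrate I cleaved at Gly-Leu. Room-temperature incubation in pH 7.5 Tris buffer with 10 mM CaCl2; the E. coli-expressed, refolded MMP-14 catalytic domain was activated with trypsin or APMA.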

[5] = target: T5, Human recombinant MMP-2 (Homo sapiens, UniProt P08253)
T5 construct: made in house; host or cells: MMP-2-transfected p2AHT2 cells
T5 sequence (P08253 110-660): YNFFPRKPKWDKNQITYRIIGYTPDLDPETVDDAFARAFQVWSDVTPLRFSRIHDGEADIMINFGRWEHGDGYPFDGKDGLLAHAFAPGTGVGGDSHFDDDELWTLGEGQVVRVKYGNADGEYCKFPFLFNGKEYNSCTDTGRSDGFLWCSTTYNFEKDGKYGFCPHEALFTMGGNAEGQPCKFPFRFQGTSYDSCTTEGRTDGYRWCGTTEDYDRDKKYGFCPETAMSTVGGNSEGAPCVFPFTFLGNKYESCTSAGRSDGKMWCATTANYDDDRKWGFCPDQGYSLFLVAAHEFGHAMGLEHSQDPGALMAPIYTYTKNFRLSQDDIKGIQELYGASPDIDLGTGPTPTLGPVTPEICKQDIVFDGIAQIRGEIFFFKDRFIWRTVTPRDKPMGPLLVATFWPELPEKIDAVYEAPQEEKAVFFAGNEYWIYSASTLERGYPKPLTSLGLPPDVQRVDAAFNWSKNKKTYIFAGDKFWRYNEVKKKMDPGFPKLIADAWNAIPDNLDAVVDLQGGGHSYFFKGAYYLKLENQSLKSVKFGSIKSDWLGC
How it was run: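 IC50 was derived from the concentration-dependent fall in fluorescence (ex 328, em 415 nm) on Gly-Leu cleavage of 4 μM MCA/Dpa-quenched substrate I. Assays ran at room temperature in pH 7.5 Tris/NaCl/CaCl2/Brij buffer with MMP-2 activated by trypsin or APMA; inhibitors were diluted from 1% DMSO stocks.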

T2 sequence (P14780 107-707 limits assumed): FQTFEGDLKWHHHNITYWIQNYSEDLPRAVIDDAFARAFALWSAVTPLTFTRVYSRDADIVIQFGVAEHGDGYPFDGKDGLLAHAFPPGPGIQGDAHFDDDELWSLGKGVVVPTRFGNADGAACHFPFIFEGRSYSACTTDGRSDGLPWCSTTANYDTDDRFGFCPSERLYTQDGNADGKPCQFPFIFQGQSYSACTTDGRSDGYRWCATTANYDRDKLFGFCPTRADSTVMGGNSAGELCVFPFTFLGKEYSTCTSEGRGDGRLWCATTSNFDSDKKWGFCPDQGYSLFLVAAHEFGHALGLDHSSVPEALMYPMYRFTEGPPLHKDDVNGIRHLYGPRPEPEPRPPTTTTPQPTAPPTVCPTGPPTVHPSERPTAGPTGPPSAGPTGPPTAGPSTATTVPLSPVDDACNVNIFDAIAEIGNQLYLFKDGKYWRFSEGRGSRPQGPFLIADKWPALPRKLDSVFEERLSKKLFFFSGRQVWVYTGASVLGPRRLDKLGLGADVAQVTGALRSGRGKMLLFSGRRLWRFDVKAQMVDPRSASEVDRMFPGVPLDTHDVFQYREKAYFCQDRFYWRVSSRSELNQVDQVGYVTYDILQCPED

COc1cc(OC)cc(-c2noc(CCCOc3ccc(S(=O)(=O)C4(C(=O)NO)CCOCC4)cc3)n2)c1 [Example 217]
IC50 [1]: > 10 µM
IC50 [2]: 5.18 µM
IC50 [3]: 0.0046 µM
IC50 [4]: > 10 µM
IC50 [5]: 0.0489 µM

Cc1ccc(-c2noc(CCCOc3ccc(S(=O)(=O)C4(C(=O)NO)CCOCC4)cc3)n2)c(F)c1 [Example 218]
IC50 [1]: > 10 µM
IC50 [2]: 2.97 µM
IC50 [3]: 0.0014 µM
IC50 [4]: > 10 µM
IC50 [5]: 0.0404 µM

COc1ccccc1-c1nnc(CCCOc2ccc(S(=O)(=O)C3(C(=O)NO)CCOCC3)cc2)o1 [Example 220]
IC50 [1]: > 10 µM
IC50 [2]: 1.47 µM
IC50 [3]: 0.0057 µM
IC50 [4]: > 10 µM
IC50 [5]: 0.41 µM

O=C1CN(c2ccccc2Cl)C(=O)N1CCCOc1ccc(S(=O)(=O)C2(C(=O)NO)CCOCC2)cc1 [Example 224]
IC50 [1]: > 10 µM
IC50 [2]: 1.47 µM
IC50 [3]: 0.0047 µM
IC50 [4]: > 10 µM
IC50 [5]: 0.193 µM

Cc1ccccc1N1CC(=O)N(CCCOc2ccc(S(=O)(=O)C3(C(=O)NO)CCOCC3)cc2)C1=O [Example 226]
IC50 [1]: > 10 µM
IC50 [2]: 2.14 µM
IC50 [3]: 0.0043 µM
IC50 [4]: > 10 µM
IC50 [5]: 0.222 µM

COCCN1CCC(C(=O)NO)(S(=O)(=O)c2ccc(OCCCNC(=O)c3ccc(OC(C)C)c(C)c3)cc2)CC1 [Example 230]
IC50 [1]: > 10 µM
IC50 [2]: 1.02 µM
IC50 [3]: 0.0011 µM
IC50 [4]: > 10 µM
IC50 [5]: 0.555 µM

COc1ccc(C(=O)CCCc2ccc(S(=O)(=O)C3(C(=O)NO)CCOCC3)cc2)cc1 [Example 231]
IC50 [1]: > 10 µM
IC50 [2]: 0.0102 µM
IC50 [3]: 0.0002 µM
IC50 [4]: 0.642 µM
IC50 [5]: 0.0016 µM

O=C1CN(c2cccc(OC(F)(F)F)c2)C(=O)N1CCCOc1ccc(S(=O)(=O)C2(C(=O)NO)CCOCC2)cc1 [Example 232]
IC50 [1]: > 10 µM
IC50 [2]: 0.878 µM
IC50 [3]: 0.0056 µM
IC50 [4]: > 10 µM
IC50 [5]: 0.0742 µM

COc1ccc(-c2noc(CCCOc3ccc(S(=O)(=O)C4(C(=O)NO)CCOCC4)cc3)n2)cc1 [Example 237]
IC50 [1]: > 10 µM
IC50 [2]: 1.11 µM
IC50 [3]: 0.0007 µM
IC50 [4]: > 10 µM
IC50 [5]: 0.0425 µM

Cc1cccc(-c2noc(CCCOc3ccc(S(=O)(=O)C4(C(=O)NO)CCOCC4)cc3)n2)c1 [Example 238]
IC50 [1]: > 10 µM
IC50 [2]: 1.19 µM
IC50 [3]: 0.0012 µM
IC50 [4]: > 10 µM
IC50 [5]: 0.0787 µM

O=C(NO)C1(S(=O)(=O)c2ccc(OCCCc3nc(-c4ccc(F)cc4)no3)cc2)CCOCC1 [Example 240]
IC50 [1]: > 10 µM
IC50 [2]: 1.43 µM
IC50 [3]: 0.0007 µM
IC50 [4]: > 10 µM
IC50 [5]: 0.084 µM

O=C(NO)C1(S(=O)(=O)c2ccc(OCCCc3nc(-c4ccccc4)no3)cc2)CCOCC1 [Example 241]
IC50 [1]: > 10 µM
IC50 [2]: 0.944 µM
IC50 [3]: 0.0013 µM
IC50 [4]: > 10 µM
IC50 [5]: 0.0602 µM

O=C(NO)C1(S(=O)(=O)c2ccc(OCCCc3nc(-c4ccc(Cl)cc4)no3)cc2)CCOCC1 [Example 243]
IC50 [1]: 9.31 µM
IC50 [2]: 2.1 µM
IC50 [3]: 0.0005 µM
IC50 [4]: > 10 µM
IC50 [5]: 0.0494 µM

O=C(NO)C1(S(=O)(=O)c2ccc(OCCCc3nnc(Cl)o3)cc2)CCOCC1 [Example 244]
IC50 [1]: 3.25 µM
IC50 [2]: 0.108 µM
IC50 [3]: 0.0007 µM
IC50 [4]: > 10 µM
IC50 [5]: 0.0188 µM

COCCN1CCC(C(=O)NO)(S(=O)(=O)c2ccc(OCCCCC(=O)c3ccc(OC)cc3)cc2)CC1 [Example 245]
IC50 [1]: > 10 µM
IC50 [2]: 0.0611 µM
IC50 [3]: 0.0002 µM
IC50 [4]: > 10 µM
IC50 [5]: 0.0086 µM

CC(C)c1ccc(C(=O)NNC(=O)CCCOc2ccc(S(=O)(=O)C3(C(=O)NO)CCOCC3)cc2)cc1 [Example 246]
IC50 [1]: 1.17 µM
IC50 [2]: 0.105 µM
IC50 [3]: 0.003 µM
IC50 [4]: > 10 µM
IC50 [5]: 0.0075 µM

CC(C)c1ccc(-c2nnc(CCCOc3ccc(S(=O)(=O)C4(C(=O)NO)CCOCC4)cc3)o2)cc1 [Example 247]
IC50 [1]: 3.61 µM
IC50 [2]: 0.341 µM
IC50 [3]: 0.0011 µM
IC50 [4]: > 10 µM
IC50 [5]: 0.445 µM

COCCN1CCC(C(=O)NO)(S(=O)(=O)c2ccc(OCCCCC(=O)c3ccc(N(C)C)cc3)cc2)CC1 [Example 248]
IC50 [1]: > 10 µM
IC50 [2]: 0.106 µM
IC50 [3]: 0.0002 µM
IC50 [4]: 1.7 µM
IC50 [5]: 0.0157 µM

COc1ccc(-c2nnn(CCCOc3ccc(S(=O)(=O)C4(C(=O)NO)CCOCC4)cc3)n2)cc1 [Example 252]
IC50 [1]: 5.6 µM
IC50 [2]: 1.05 µM
IC50 [3]: 0.0002 µM
IC50 [4]: > 10 µM
IC50 [5]: 0.0479 µM

Cc1cc(C(=O)CCCCOc2ccc(S(=O)(=O)C3(C(=O)NO)CCN(C4CC4)CC3)cc2)ccc1OC(C)C [Example 254]
IC50 [1]: > 10 µM
IC50 [2]: 0.968 µM
IC50 [3]: 0.0017 µM
IC50 [4]: > 10 µM
IC50 [5]: 0.138 µM

COc1ccc(CCCCc2ccc(S(=O)(=O)C3(C(=O)NO)CCOCC3)cc2)cc1 [Example 256]
IC50 [1]: > 10 µM
IC50 [2]: 0.0379 µM
IC50 [3]: < 0.0001 µM
IC50 [4]: > 10 µM
IC50 [5]: 0.0001 µM

O=C(NO)C1(S(=O)(=O)c2ccc(OCCCc3nnc(-c4ccc(-c5ccccc5)cc4)o3)cc2)CCOCC1 [Example 257]
IC50 [1]: > 10 µM
IC50 [2]: 6.23 µM
IC50 [3]: 0.0005 µM
IC50 [4]: > 10 µM
IC50 [5]: 0.174 µM

Cc1cccc(-c2nnc(CCCOc3ccc(S(=O)(=O)C4(C(=O)NO)CCOCC4)cc3)o2)c1 [Example 258]
IC50 [1]: > 10 µM
IC50 [2]: 1.96 µM
IC50 [3]: 0.0017 µM
IC50 [4]: > 10 µM
IC50 [5]: 0.173 µM

Cc1ccc(-c2nnc(CCCOc3ccc(S(=O)(=O)C4(C(=O)NO)CCOCC4)cc3)o2)cc1 [Example 259]
IC50 [1]: 7.26 µM
IC50 [2]: 1.88 µM
IC50 [3]: 0.0007 µM
IC50 [4]: > 10 µM
IC50 [5]: 0.201 µM

O=C(NO)C1(S(=O)(=O)c2ccc(OCCCc3nnc(-c4ccc(Cl)cc4)o3)cc2)CCOCC1 [Example 260]
IC50 [1]: 1.16 µM
IC50 [2]: 0.391 µM
IC50 [3]: 0.0018 µM
IC50 [4]: > 10 µM
IC50 [5]: 0.0132 µM

O=C(NO)C1(S(=O)(=O)c2ccc(OCCCc3nnc(-c4ccccc4Cl)o3)cc2)CCOCC1 [Example 261]
IC50 [1]: > 10 µM
IC50 [2]: 1.19 µM
IC50 [3]: 0.0019 µM
IC50 [4]: > 10 µM
IC50 [5]: 0.178 µM

O=C(NO)C1(S(=O)(=O)c2ccc(OCCCc3nnc(CC4CCCCC4)o3)cc2)CCOCC1 [Example 262]
IC50 [1]: > 10 µM
IC50 [2]: 1.7 µM
IC50 [3]: 0.003 µM
IC50 [4]: > 10 µM
IC50 [5]: 0.118 µM

CCOc1ccccc1-c1noc(CCCOc2ccc(S(=O)(=O)C3(C(=O)NO)CCOCC3)cc2)n1 [Example 264]
IC50 [1]: > 10 µM
IC50 [2]: 0.287 µM
IC50 [3]: 0.0053 µM
IC50 [4]: > 10 µM
IC50 [5]: 0.163 µM

O=C(NO)C1(S(=O)(=O)c2ccc(OCCCc3nc(-c4cccc(OC(F)(F)F)c4)no3)cc2)CCOCC1 [Example 266]
IC50 [1]: > 10 µM
IC50 [2]: 0.203 µM
IC50 [3]: 0.0091 µM
IC50 [4]: > 10 µM
IC50 [5]: 0.391 µM
